Assays:
Gli2 αPKA = experiment: Hh pathway activation by overexpressed Gli2 phosphosite mutants; type: cell-based; conditions: NIH-3T3 cells; 15 μM HPI-1, 20 μM HPI-2
Protocol: Hh pathway activation mediated by the overexpression of Gli, Gli2, Gli2αPKA, or Gli2αGSK. […] The cells were co-transfected the following day with 220 ng/well pcDNA-derived Gli1, Gli2, or Gli2 phosphosite mutant expression vectors and 80 ng/well of a 1:15 mixture of phRLTK (Promega) and 8XGIiBS-FL. After transfection, cells were grown to confluence (approximately 48 h). The cell were then incubated for an additional 28-32 h in DMEM containing 0.5% CS, 100 U/mL penicillin, 0.1 mg/mL streptomycin, and either DMSO, 50 μM forskolin, 50 μM LY294002, or various concentrations of the HPIs. Firefly and Renilla luciferase activities were measured using a dual luciferase kit and a Veritas microplate luminometer.

CREB = experiment: PKA-mediated CREB phosphorylation assay; type: cell-based; conditions: NIH-3T3 cells; 15 μM HPI-1, 20 μM HPI-2
Protocol: PKA-mediated CREB phosphorylation assay. […] The cells were cultured for an additional 2 h and then lysed in hot 2×SDS-PAGE sample buffer (100 mM Tris, pH 6.8, 200 mM DTT, 0.02% bromophenol blue, 16 20 mM NaF, 2 mM sodium orthovandate, 4% SDS, and 20% glycerol). After the samples were boiled for 5 min, they were resolved on 4-12% Criterion XT gels (Bio-Rad) and transferred to PVDF membranes (Millipore). The membranes were blocked overnight in TBST buffer (Trisbuffered saline with 0.1% Tween 20) containing 5% bovine serum albumin and then probed with either anti-phosphorylated CREB (87G3, Cell Signaling Technology; 1:1,000 dilution) or CREB (48H2, Cell Signaling Technology, 1:1,000 dilution) antibodies.

[1] = tested on: Math1-cre:SmoM2 cerebellar GNPs; experiment: Math1-cre:SmoM2 cerebellar GNP proliferation; type: cell-based, mice; conditions: for Proliferation of SmoM2-expressing GNPs (histone H3 phosphorylation): HPIs 10 μM, cyclopamine 5 μM, 24 h
Protocol: Analysis of Math1-cre:SmoM2 cerebellar GNP proliferation. To generate Math1-cre:SmoM2 tumors (11), a Math1-cre driver was used to conditionally express an activated Smo (SmoM2) allele. The Gt(ROSA)26Sortm1 (Smo/EYFP)Amc/J) mouse line was obtained from Jackson Laboratory (Bar Harbor, ME). […] Primary cultures from Math1-cre:SmoM2 tumors were established by triturating tumor tissue and plating the dissociated cells onto poly-D-ornithine-coated plates in DMEM-F-12 with N2 supplement, 25 mM KCI, and antibiotics. After culturing the cells for 24 h, they were treated with individual HPIs ([…]) for 24 h. Cell proliferation was then quantified by immunocytochemistry, and the expression of cyclin D1 and Gli1 were assessed by immunoblotting and RT-PCR, respectively. For immunocytochemistry, the primary cultures were fixed in 4% paraformaldehyde for 30 min at room temperature. […] Immunofluorescently stained cultures were imaged using a Nikon Eclipse E600 microscope equipped with a 20×objective. Approximately 30,000 cells were analyzed for each experimental condition. To detect proteins by immunoblotting, non-denaturing lysates were prepared from Math1-cre:SmoM2 cultures using lysate buffer (50 mM HEPES, pH 7.4, containing 150 mM NaCl, 1 mM EDTA, 2.5 mM EGTA, 0.1% Triton X-100, 10% glycerol, and 1 mM DTT), resolved on a 10% SDS-PAGE gel, and transferred onto a PVDF membrane. The membrane was incubated overnight at 4° C. with anti-cyclin D1 (Ab-3, Neomarkers; 1:1,000 dilution) or anti-β-tubulin (T4026, Sigma; 1:5,000 dilution) antibodies. […] For RT-PCR analyses, total RNA from Math1-cre:SmoM2cultures was extracted with TRIzol (Invitrogen) according to the manufacturer's protocol. The RNA was purified further […] with an RNeasy kit (Qiagen), and then reverse-transcribed with an Advantage RT-for-PCR Kit (Clontech) and random hexamer primers. […] Typical PCR conditions were as follows: an initial denaturation at 95° C. for 1 min followed by 28 cycles of denaturation at 94° C. for 45 sec, annealing at 60° C. for 45 sec, extension at 70° C. for 2 min, and a final extension at 72° C. for 7 min. The resulting PCR products were analyzed on 2% agarose gels.

FLAG-Gli1 = experiment: Immunostaining of FLAG-Gli1 line: FLAG-Gli1 localization; type: cell-based, mouse; conditions: Shh-LIGHT2 FLAG-Gli1 cells
Protocol: Immunostaining of FLAG-Gli lines and NIH-3T3 cells. The FLAG-Gli1-expressing or FLAG-Gli2-expressing clonal cell lines were seeded into 24-well plates (80,000 cells/well) containing poly-D-lysine-coated 12-mm glass coverslips. […] The cells were subsequently fixed in 4% paraformaldehyde for 10 min at room temperature followed by treatment with methanol at −20° C. for 2 to 5 min. The cells were washed with PBS, permeabilized with 0.2% Triton X-100 for 2 to 5 min, and then blocked with PBS containing 2% BSA for 3 h at room temperature. […] In order to quantify ciliary Gli2 localization, a circular region with diameter equal to the average width of cilia as determined by the anti-Arl13b antibody staining was manually placed at the distal end of each cilium. Regions were transferred from the anti-Arl13b antibody image to the anti-FLAG antibody image, and FLAG staining intensities within those areas were assessed. Between 40 and 80 cilia were analyzed for each condition. To normalize ciliary FLAG-Gli2 levels with respect to compound-dependent changes in total FLAG-Gli2 levels, the absolute average intensities for each condition were divided by the fold change in FLAG-Gli2 levels, as determined by the quantitative immunoblotting described above. Quantification of ciliary FLAG-Gli1 levels was performed in an analogous manner. […]

Row | SMILES | Sensitivity of overexpressed Gli2 αPKA mutant to compound (Gli2 αPKA) | PKA-dependent phosphorylation of CREB (CREB) | Cellular levels of cyclin D1 protein and Gli1 transcripts in GNPs [1] | Proliferation of SmoM2-expressing GNPs (histone H3 phosphorylation) [1] | Ciliary FLAG-Gli1 levels (FLAG-Gli1) | Subcellular localization of FLAG-Gli1 (FLAG-Gli1)
1 | COCCOC(=O)C1=C(C)NC2=C(C(=O)CC(c3ccccc3OC)C2)C1c1cccc(O)c1 (mixture of isomers) [Compound 8, 4-(3-Hydroxy-phenyl)-7-(2-methoxy-phenyl)-2-methyl-5-oxo-1,4,5,6,7,8-hexahydro-quinoline-3-carboxylic acid 2-methoxy-ethyl ester] | partially resistant | does not induce the PKA-dependent phosphorylation | reduced cellular levels of cyclin D1 protein and Gli1 transcripts | significantly inhibited the proliferation | – | –
2 | OCCNc1nc(N2CCN(c3ccccc3)CC2)nc2ccccc12 [Compound 11] | – | – | – | did not block GNP proliferation | – | –
3 | COc1ccc(OC)c2c1cc1n2CC(C)(C(=O)NC2CCCCCCC2)N(CCN(C)C)C1=O (stereo not drawn) [Compound 17] | partially resistant | significantly lower than that observed in forskolin-treated cells | – | did not block GNP proliferation | – | –
4 | N#CC(C(=O)c1ccc(Cl)cc1Cl)=C1NC(=O)c2ccccc2N1 [Compound 18] | – | – | reduced cellular levels of cyclin D1 protein and Gli1 transcripts | significantly inhibited the proliferation | promoted accumulation of FLAG-Gli1 at the distal tip of this organelle relative to total FLAG-Gli1 levels | reduced cytoplasmic levels of the transcription factor but retained nuclear FLAG-Gli1

Source: patent publication US8119640B2, “Hedgehog pathway antagonists methods of use” (The Board of Trustees of the Leland Stanford Junior …, priority 2008, dated 2012)
